The test system of experiment [1] is PTEN-deficient glioblastomas and metastatic renal cell carcinomas. As to conditions: patients with PTEN-deficient glioblastomas and metastatic renal cell carcinomas; cited from earlier work.
For experiment [2], the system named is pre-existing GI polyps in Lkb1^+/− mice.
Experimental: Mouse Colony Maintenance, Treatment Regimen and Polyp Measurement. Lkb1^+/+ and Lkb1^+/− mice, maintained on an FVB/N genetic background, were monitored for the development of gastrointestinal polyps. Mice with clinical signs of disease were euthanized and necropsied. The groups were vehicle treated or RAPA treated mice. […] Polyps were scored and total polyp burden was measured).
After two months of treatment, polyp size and number in each mouse were quantitated.

`CO[C@H]1C[C@@H]2CC[C@@H](C)[C@@](O)(O2)C(=O)C(=O)N2CCCC[C@H]2C(=O)O[C@H]([C@H](C)C[C@@H]2CC[C@@H](OC(=O)C(C)(CO)CO)[C@H](OC)C2)CC(=O)[C@H](C)/C=C(\C)[C@@H](O)[C@@H](OC)C(=O)[C@H](C)C[C@H](C)/C=C/C=C/C=C/1C` [Temsirolimus, temsirolimus]: the clinical outcome in experiment [1] is on record as “palliative success”.
For the compound `CO[C@H]1C[C@@H]2CC[C@@H](C)[C@@](O)(O2)C(=O)C(=O)N2CCCC[C@H]2C(=O)O[C@H]([C@H](C)C[C@@H]2CC[C@@H](O)[C@H](OC)C2)CC(=O)[C@H](C)/C=C(\C)[C@@H](O)[C@@H](OC)C(=O)[C@H](C)C[C@H](C)/C=C/C=C/C=C/1C` [rapamycin], the “reduction in the overall mass of polyps” value in experiment [2] (Lkb1+/− mice treated vs untreated with rapamycin, two months) is recorded as 80%. Besides, the “mean polyp burden (total polyp burden)” value in experiment [2] (Lkb1+/− mice, 10 mg/kg rapamycin i.p., two months, n=10, VEH 9.6±5.5, p=0.00026) is 2.0±1.2. In addition, the mean polyp size in experiment [2] (Lkb1+/− mice, n=10, VEH 4.4±0.8, p<0.0001) is 1.2±0.9. The compound also gave a mean polyp number in experiment [2] (Lkb1+/− mice, visible polyps between 1 and 5 mm scored, n=10, VEH 5.3±1.8, p=0.00022) of 2.8±1.4.

Source of the values: patent US20120189544A1, “GASTROINTESTINAL DISEASE OR DISORDER IMAGING AND TREATMENT” (SALK INSTITUTE FOR BIOLOGICAL STUDIES, priority 2009, published 2012).
